One test concerns the target T1, human AR (Homo sapiens, UniProt P10275).
T1 construct: expressed in transfected cells; host or cells: CV-1 cells (African green monkey kidney fibroblasts)
T1 sequence (P10275 1-920): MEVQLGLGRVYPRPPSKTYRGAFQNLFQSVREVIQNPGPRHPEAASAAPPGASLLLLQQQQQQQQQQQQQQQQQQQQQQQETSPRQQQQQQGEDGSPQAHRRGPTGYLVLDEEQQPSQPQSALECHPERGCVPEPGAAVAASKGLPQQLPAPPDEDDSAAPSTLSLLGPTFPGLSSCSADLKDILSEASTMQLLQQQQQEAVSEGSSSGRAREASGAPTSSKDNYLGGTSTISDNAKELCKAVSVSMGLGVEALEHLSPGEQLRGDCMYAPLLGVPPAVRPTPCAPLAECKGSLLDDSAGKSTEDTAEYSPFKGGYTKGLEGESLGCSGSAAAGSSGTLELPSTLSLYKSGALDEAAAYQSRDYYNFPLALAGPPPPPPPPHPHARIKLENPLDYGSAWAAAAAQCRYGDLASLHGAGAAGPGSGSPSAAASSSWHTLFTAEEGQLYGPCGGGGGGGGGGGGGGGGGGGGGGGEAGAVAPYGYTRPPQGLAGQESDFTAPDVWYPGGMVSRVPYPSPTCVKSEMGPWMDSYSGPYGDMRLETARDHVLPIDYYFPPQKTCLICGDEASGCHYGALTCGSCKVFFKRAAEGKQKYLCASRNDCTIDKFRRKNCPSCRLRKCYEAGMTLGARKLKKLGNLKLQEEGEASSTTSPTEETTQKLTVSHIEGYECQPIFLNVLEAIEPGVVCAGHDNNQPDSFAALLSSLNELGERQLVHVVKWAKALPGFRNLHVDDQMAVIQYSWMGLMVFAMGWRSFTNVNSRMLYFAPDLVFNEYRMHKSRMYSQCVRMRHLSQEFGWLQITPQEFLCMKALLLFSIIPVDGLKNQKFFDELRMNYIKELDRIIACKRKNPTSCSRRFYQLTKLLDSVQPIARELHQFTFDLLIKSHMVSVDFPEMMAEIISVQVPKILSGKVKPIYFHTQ
Briefly: cell-based. It is filed as cell-based. Conditions: for EC50: read-out: AR Agonist CV-1 Cells Potency. From the text:
The co-transfection assay provides a method for identifying functional agonists and partial agonists which mimic, or antagonists which inhibit, the effect of native hormones, and quantifying their activity for responsive IR proteins. In this regard, the co-transfection assay mimics an in vivo system in the laboratory. Importantly, activity in the co-transfection assay correlates very well with known in vivo activity, such that the co-transfection assay functions as a qualitative and quantitative predictor of a tested compounds in vivo pharmacology. See, e.g., T. Berger et al. 41 J. Steroid Biochem. Molec.
CV-1 cells (African green monkey kidney fibroblasts) were cultured in the presence of Dulbecco's Modified Eagle Medium (DMEM) supplemented with 10% charcoal resin-stripped fetal bovine serum then transferred to 96-well microtiter plates one day prior to transfection.
The reporter plasmid, MTV-LUC, contains the cDNA for firefly luciferase (LUC) under control of the mouse mammary tumor virus (MTV) long terminal repeat, a conditional promoter containing an androgen response element. See e.g., Berger et al. supra. In addition, pRS-β-Gal, coding for constitutive expression of E. coli β-galactosidase (β-Gal), was included as an internal control for evaluation of transfection efficiency and compound toxicity.
Three to four replicates were used for each sample.
After 40 hours, the cells were washed with PBS, lysed with a Triton X-100-based buffer and assayed for LUC and β-Gal activities using a luminometer or spectrophotometer, respectively. For each replicate, the normalized response (NR) was calculated as:
where β-Gal rate=β-Gal•1×10^−5/β-Gal incubation time.

Test [1] relates to immature castrated male rat. Briefly: Immature castrated male rat model with testosterone silastic implant, ventral prostate and seminal vesicle weights. It is filed as in vivo. The conditions noted are these: for ED50: Rattus norvegicus, 72 h; for effect on ventral prostate and seminal vesicle weights (in words): Tables 5 and 6. An excerpt:
The activity of selected compounds of the present invention as AR antagonists was *~ investigated in an immature castrated male rat model. A recognized test of the antiandrogen activity of a given compound, as described in L. G. Hershberger et al., 83 Proc. Soc. Exptl. […] Similar approaches have been used in the rat and in hamsters. […] Dermatol.
The basis of this assay is the fact that male sexual accessory organs, such as the prostate and seminal vesicles, play an important role in reproductive function. […] See F. Labrie et al., 16 Clin. Invest. […] However, this is not a major pathway since, in both animals and humans, castration without concomitant adrenalectomy leads to almost complete involution of the prostate and seminal vesicles. […] See M. C. […] Since the male sex organs are the tissues most responsive to modulation by androgen activity, this model is used to determine the androgen-dependent growth of the sex accessory organs in immature castrated rats.
Immature male rats (50-60 g, 21 day-old Sprague-Dawley, Harlan) were castrated under metofane anesthesia. […] As a negative control, a group of castrated animals received empty 10 mm silastic implants. Animal groups were dosed for 3 days by oral gavage as follows:
At the end of the 3-day treatment, the animals were sacrificed, and the ventral prostates and seminal vesicles were collected and weighed. Organ weight data were normalized to body weight of each animal and expressed as mg/100 g body weight. Results were analyzed by analysis of variance followed by the Dunnett's test. Data were transformed to comply with the normality and variance homogeneity criteria required to utilize the analysis of variance and Dunnett's test. The following data transformations were used for the ventral prostate and seminal vesicle: square root and power 0.7 respectively. Thereafter, the data were fitted to a four-parameter logistic equation and potencies derived from the fitted estimates. The same data transformations were used for the equation-fitting phase of the data analysis.
The gain and loss of sexual organ weights reflect the changes of cell number (DNA content) and cell mass (protein content), depending upon the serum androgen concentrations. […] Therefore, measurement of organ wet weights is sufficient to indicate the bioactivity of androgens and androgen antagonists.

Setting [2] is: antagonist mode, DHT at its EC50, % of maximal inhibition, na = not active.
The mark [3] stands for this setting: read-out: AR Antagonist CV-1 Cells Potency.
Setting [4] is: T implant + 0.1 mg/kg oral, 3 days.
Setting [5] is: T implant + 1 mg/kg oral, 3 days.
Setting [6] is: T implant + 3 mg/kg oral, 3 days.
[7] abbreviates: T implant + 10 mg/kg oral, 3 days.
The mark [8] stands for this setting: T implant + 30 mg/kg oral, 3 days.
Where [9] appears, read: T implant + 100 mg/kg oral, 3 days.

Molecules are shown by their SMILES. Where two headings read alike, the source gives them in different places.

Take `Cc1c2c(cc3c(C(F)(F)F)c(F)c(=O)[nH]c13)C(C)CC(C)(C)N2C` (centres unmarked) [Compound 117, 7-Fluoro-1,2,3,4-tetrahydro-1,2,2,4,10-pentamethyl-6-trifluoromethyl-8-pyridono[5,6-g]quinoline]: the “AR Antagonist CV-1 Cells Efficacy” value on human AR (setting [2]) turned out to be 82 ± 1%. In addition, on human AR (setting [3]), the IC50 was found to be 0.394 ± 0.075 µM.

For the molecule `CCC1CCNc2c1cc1c(C(F)(F)F)cc(=O)[nH]c1c2[N+](=O)[O-]` (racemic) [Compound 124, (R/S)-4-Ethyl-1,2,3,4-tetrahydro-10-nitro-6-(trifluoromethyl)-8-pyridono[5,6-g]quinoline], the “AR Agonist CV-1 Cells Efficacy” value on human AR (agonist mode, percent maximal response relative to reference agonist DHT, na = not active (efficacy < 10 and potency > 10,000)) is 50 ± 1%. Besides, the EC50 at human AR is 0.202 ± 0.018 µM.

As for `CC1(C)CCc2cc3c(C(F)(F)F)cc(=O)[nH]c3c([N+](=O)[O-])c2N1` [Compound 125, 1,2,3,4-Tetrahydro-2,2-dimethyl-10-nitro-6-(trifluoromethyl)-8-pyridono[5,6-g]quinoline], the “AR Antagonist CV-1 Cells Efficacy” value on human AR (setting [2]) was determined as 73%. Besides, the IC50 at human AR (setting [3]) is 1.34 µM.

Regarding `Cn1c(=O)cc(C(F)(F)F)c2cc3c4c(c21)CCCN4CCC3` [Compound 13, 8-Methyl-11-(trifluoromethyl)-9-pyridono[6,5-i]julolidine], at human AR (setting [2]), the “AR Antagonist CV-1 Cells Efficacy” value stood at 84 ± 6%. The IC50 at human AR (setting [3]) was determined as 0.726 ± 0.084 µM.

Take `CC12CCCN1c1cc3[nH]c(=O)cc(C(F)(F)F)c3cc1CC2` (racemic) [Compound 101, (R/S)-6,7,7a,11-Tetrahydro-7a-methyl-4-trifluoromethyl-2-pyridono[5,6-g]pyrrolidino[1,2-a]quinoline]: on human AR, the “AR Antagonist CV-1 Cells Efficacy” value came to 86 ± 6% and the IC50 was 0.325 ± 0.068 µM.

Turning to `O=c1cc(C(F)(F)F)c2cc3c4c(c2[nH]1)CCCN4CCC3` [Compound 12, 11-(Trifluoromethyl)-9-pyridono[6,5-i]julolidine], on human AR (setting [2]), the “AR Antagonist CV-1 Cells Efficacy” value is 53 ± 16 %. Besides, the IC50 at human AR (setting [3]) worked out at 2.37 ± 0.215 µM.

For `CC(C)C(=O)Nc1ccc([N+](=O)[O-])c(C(F)(F)F)c1` [Flutamide, 2-methyl-N-[4-nitro-3-(trifluoromethyl)phenyl]propanamide], the 50% effective dose (ED50) in test [1] (oral, 3 days, four-parameter logistic fit, number of experiments in parentheses, read-out: Potency (ED50) Weighted Average ± SE, Seminal Vesicle Weight) was 3.3 ± 0.4 mg/kg; in test [1] (oral, 3 days, four-parameter logistic fit, number of experiments in parentheses, read-out: Potency (ED50) Weighted Average ± SE, Ventral Prostate Weight), 4 ± 0.6 mg/kg. In addition, the “Seminal Vesicles weight” value is reported as 31.1 ± 0.9 (5) mg/100 g body weight in test [1] (setting [4]); 27.9 ± 2.5 (5) mg/100 g body weight in test [1] (setting [5]); 22.7 ± 0.9 (5) mg/100 g body weight in test [1] (setting [6]); 12.4 ± 1.8 (5) mg/100 g body weight in test [1] (setting [7]); 9.1 ± 1.3 (5) mg/100 g body weight in test [1] (setting [8]); 9.9 ± 0.4 (5) mg/100 g body weight in test [1] (setting [9]). For the same molecule, the “Ventral Prostate weight” value is 78.9 ± 3.5 (5) mg/100 g body weight in test [1] (setting [4]); 73.1 ± 4.6 (5) mg/100 g body weight in test [1] (setting [5]); 62.4 ± 3.7 (5) mg/100 g body weight in test [1] (setting [6]); 43.0 ± 3.6 (5) mg/100 g body weight in test [1] (setting [7]); 28.4 ± 3.1 (5) mg/100 g body weight in test [1] (setting [8]); 29.9 ± 1.8 (5) mg/100 g body weight in test [1] (setting [9]). In test [1], the “effect on ventral prostate and seminal vesicle weights (in words)” value is “dose-dependent decrease”.

Turning to `CC1=CC(C)(C)Nc2c1cc1c(C(F)(F)F)c(F)c(=O)[nH]c1c2C` [Compound 114, 7-Fluoro-1,2-dihydro-2,2,4, 10-tetramethyl-6-trifluoromethyl-8-pyridono[5,6-g]quinoline], the “AR Antagonist CV-1 Cells Efficacy” value on human AR (setting [2]) was found to be 90 ± 1%. Also, at human AR (setting [3]), the IC50 was 0.203 ± 0.066 µM.

For `CC(O)(CS(=O)(=O)c1ccc(F)cc1)C(=O)Nc1ccc(C#N)c(C(F)(F)F)c1` (centres unmarked) [Casodex], the ED50 came out at 7.8 ± 0.9 mg/kg in test [1] (po, read-out: Potency (ED50) Weighted Average ± SE, Seminal Vesicle Weight) and 7 ± 0.9 mg/kg in test [1] (po, read-out: Potency (ED50) Weighted Average ± SE, Ventral Prostate Weight). Also, the “effect on ventral prostate and seminal vesicle weights (in words)” value in test [1] was “dose-dependent decrease”.

Take `CC1(C)CCc2cc3c(C(F)(F)F)c([N+](=O)[O-])c(=O)[nH]c3c([N+](=O)[O-])c2N1` [Compound 126, 1,2,3,4-Tetrahydro-2,2-dimethyl-7,10-dinitro-6-(trifluoromethyl)-8-pyridono[5,6-g]quinoline]: the IC50 against human AR is 5.24 ± 0.363 µM. For the same molecule, on human AR (setting [2]), the “AR Antagonist CV-1 Cells Efficacy” value is recorded as 44 ± 2 %.

For the molecule `CCC1CCN(C=O)c2cc3[nH]c(=O)cc(C(F)(F)F)c3cc21` (racemic) [Compound 121, (R/S)-4-Ethyl-1-formyl-1,2,3,4-tetrahydro-6-(trifluoromethyl)-8-pyridono[5,6-g]quinoline], on human AR, the “AR Agonist CV-1 Cells Efficacy” value worked out at 72 ± 20% and the EC50 stood at 0.15 ± 0.039 µM.

Consider `Cc1c2c(cc3c(C(F)(F)F)c(F)c(=O)n(C)c13)C(C)CC(C)(C)N2` (centres unmarked) [Compound 116, 7-Fluoro-1,2,3,4-tetrahydro-2,2,4,9,10-pentamethyl-6-trifluoromethyl-8-pyridono[5,6-g]quinoline], for which the “AR Antagonist CV-1 Cells Efficacy” value on human AR (setting [2]) was found to be 20%. Further, on human AR (setting [3]), the IC50 turned out to be 1.46 µM.

Values taken from patent US6534516B1, “Androgen receptor modulator compounds and methods” (Ligand Pharmaceuticals Incorporated, priority 1996, dated 2003).
